The test has as its system RAW264.7. The experiment in a line: Antiinflammatory activity against mouse RAW264.7 cells assessed as stimulation LPS-induced TNFalpha release at 100 uM pretreated for 30 mins before LPS challenge by ELISA. It counts as functional, cell-based. In general terms: An ELISA detects its analyte on a solid surface through an enzyme-linked reagent.

The source made the active and inactive calls. The calls are words filed in the database; no cut-off is given here.

With `CO[C@H]1C[C@H](O[C@H]2CC[C@@]3(COC(C)=O)C(=CC[C@@H]4[C@@H]3CC[C@]3(C)[C@@H]5[C@H]6CO[C@@]5(C)O[C@@]43O6)C2)O[C@H](C)[C@H]1O[C@H]1C[C@H](OC)[C@H](O[C@H]2C[C@@H](O)[C@H](O[C@H]3C[C@@H](OC)[C@H](O[C@@H]4O[C@H](CO)[C@@H](O)[C@H](O)[C@H]4O)[C@@H](C)O3)[C@@H](C)O2)[C@@H](C)O1`, the result was Active.
Take `CO[C@@H]1[C@@H](O)[C@H](O[C@@H]2[C@@H](C)O[C@@H](O[C@H]3[C@@H](OC)C[C@H](O[C@H]4[C@H](O)C[C@H](O[C@H]5CC[C@@]6(C)C(=CC[C@@H]7[C@@H]6CC[C@]6(C)[C@@H]8[C@H]9CO[C@@]8(C)O[C@@]76O9)C5)O[C@@H]4C)O[C@@H]3C)C[C@H]2OC)O[C@H](C)[C@H]1O[C@@H]1O[C@H](CO)[C@@H](O)[C@H](O)[C@H]1O`: the result was Active.
In the case of `CO[C@@H]1[C@@H](O)[C@H](O[C@@H]2[C@@H](C)O[C@@H](O[C@H]3[C@@H](OC)C[C@H](O[C@@H]4[C@@H](C)O[C@@H](O[C@H]5CC[C@@]6(CO)C(=CC[C@@H]7[C@@H]6CC[C@]6(C)[C@@H]8[C@H]9CO[C@@]8(C)O[C@@]76O9)C5)C[C@H]4OC)O[C@@H]3C)C[C@H]2OC)O[C@H](C)[C@H]1O[C@@H]1O[C@H](CO)[C@@H](O)[C@H](O)[C@H]1O` it was “Active”; in that of `COC(=O)C[C@H](O[C@H]1CC[C@@]2(C)C(=CC[C@@H]3[C@@H]2CC[C@]2(C)[C@@H]4[C@H]5CO[C@@]4(C)O[C@@]32O5)C1)O[C@H](C)C(=O)O`, “inactive”.

The record behind these values is ChEMBL document CHEMBL1157221, “14,15-secopregnane derivatives from the leaves of Solenostemma argel” (J Nat Prod, 2006).
